Among the data in ChEMBL document CHEMBL5360622, “Leucettinibs, a Class of DYRK/CLK Kinase Inhibitors Inspired by the Marine Sponge Natural Product Leucettamine B” (J Med Chem, 2023) are IC50 and ΔTm values, retold here.

What is called IC50 is the concentration that inhibits the measured activity by half. A low value points to inhibition by little substance. Broadly, the ΔTm is the change in melting temperature against a reference sample.

The target of assay [1] is T1, Dual specificity tyrosine-phosphorylation-regulated kinase 3 (Homo sapiens, UniProt O43781).
T1 sequence (O43781 whole entry): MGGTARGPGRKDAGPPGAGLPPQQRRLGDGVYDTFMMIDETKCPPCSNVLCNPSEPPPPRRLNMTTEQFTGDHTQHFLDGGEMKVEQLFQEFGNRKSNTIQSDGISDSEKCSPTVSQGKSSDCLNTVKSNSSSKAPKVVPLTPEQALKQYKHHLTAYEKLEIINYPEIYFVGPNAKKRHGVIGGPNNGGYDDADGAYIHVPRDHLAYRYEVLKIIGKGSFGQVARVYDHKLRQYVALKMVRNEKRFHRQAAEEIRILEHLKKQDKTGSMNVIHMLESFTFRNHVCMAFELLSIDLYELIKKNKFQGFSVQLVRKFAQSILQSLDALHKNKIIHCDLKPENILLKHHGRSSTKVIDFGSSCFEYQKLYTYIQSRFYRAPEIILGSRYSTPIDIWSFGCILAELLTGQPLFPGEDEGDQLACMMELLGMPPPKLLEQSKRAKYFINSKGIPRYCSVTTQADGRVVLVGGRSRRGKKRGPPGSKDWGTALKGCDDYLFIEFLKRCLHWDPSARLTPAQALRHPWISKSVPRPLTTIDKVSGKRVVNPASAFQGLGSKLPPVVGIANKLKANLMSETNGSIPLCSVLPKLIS

In assay [2] the target is T2, Dual specificity tyrosine-phosphorylation-regulated kinase 4 (Homo sapiens, UniProt Q9NR20).
T2 sequence (Q9NR20 whole entry): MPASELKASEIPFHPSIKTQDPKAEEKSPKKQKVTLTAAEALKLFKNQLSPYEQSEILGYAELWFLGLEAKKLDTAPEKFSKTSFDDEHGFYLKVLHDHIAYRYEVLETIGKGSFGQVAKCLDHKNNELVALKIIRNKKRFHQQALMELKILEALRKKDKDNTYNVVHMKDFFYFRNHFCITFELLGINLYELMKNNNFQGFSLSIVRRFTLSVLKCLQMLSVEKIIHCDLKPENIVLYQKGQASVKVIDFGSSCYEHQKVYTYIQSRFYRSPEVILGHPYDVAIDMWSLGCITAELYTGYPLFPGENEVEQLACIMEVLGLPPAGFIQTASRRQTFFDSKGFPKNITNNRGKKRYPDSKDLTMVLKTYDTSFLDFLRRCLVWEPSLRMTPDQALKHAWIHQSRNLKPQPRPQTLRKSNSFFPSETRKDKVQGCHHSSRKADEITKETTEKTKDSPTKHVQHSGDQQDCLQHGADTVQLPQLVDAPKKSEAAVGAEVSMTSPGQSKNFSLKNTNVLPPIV

Assay [3] addresses Calcium/calmodulin-dependent protein kinase kinase 2 (Homo sapiens) (UniProt Q96RR4). Particulars: dose 10.0 µM.
The target in assay [4] is Casein kinase II subunit alpha (Homo sapiens) (UniProt P68400). Particulars: dose 10.0 µM.
Sequence of Casein kinase II subunit alpha (Homo sapiens) (P68400 whole entry, looked up): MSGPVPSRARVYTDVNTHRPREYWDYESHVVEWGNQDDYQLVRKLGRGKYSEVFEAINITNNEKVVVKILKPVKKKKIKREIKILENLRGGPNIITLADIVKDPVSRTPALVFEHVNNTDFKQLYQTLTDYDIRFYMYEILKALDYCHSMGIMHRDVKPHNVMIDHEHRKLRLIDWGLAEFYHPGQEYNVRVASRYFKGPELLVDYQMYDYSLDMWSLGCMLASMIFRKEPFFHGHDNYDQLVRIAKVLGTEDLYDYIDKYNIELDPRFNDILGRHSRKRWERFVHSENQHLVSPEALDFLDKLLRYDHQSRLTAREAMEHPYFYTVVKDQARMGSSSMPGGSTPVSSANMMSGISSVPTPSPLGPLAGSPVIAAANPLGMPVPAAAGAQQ
The target of assay [5] is Homeodomain-interacting protein kinase 2 (Homo sapiens) (UniProt Q9H2X6). The conditions noted are these: dose 10.0 µM.
Sequence of Homeodomain-interacting protein kinase 2 (Homo sapiens) (Q9H2X6 whole entry, looked up, canonical isoform): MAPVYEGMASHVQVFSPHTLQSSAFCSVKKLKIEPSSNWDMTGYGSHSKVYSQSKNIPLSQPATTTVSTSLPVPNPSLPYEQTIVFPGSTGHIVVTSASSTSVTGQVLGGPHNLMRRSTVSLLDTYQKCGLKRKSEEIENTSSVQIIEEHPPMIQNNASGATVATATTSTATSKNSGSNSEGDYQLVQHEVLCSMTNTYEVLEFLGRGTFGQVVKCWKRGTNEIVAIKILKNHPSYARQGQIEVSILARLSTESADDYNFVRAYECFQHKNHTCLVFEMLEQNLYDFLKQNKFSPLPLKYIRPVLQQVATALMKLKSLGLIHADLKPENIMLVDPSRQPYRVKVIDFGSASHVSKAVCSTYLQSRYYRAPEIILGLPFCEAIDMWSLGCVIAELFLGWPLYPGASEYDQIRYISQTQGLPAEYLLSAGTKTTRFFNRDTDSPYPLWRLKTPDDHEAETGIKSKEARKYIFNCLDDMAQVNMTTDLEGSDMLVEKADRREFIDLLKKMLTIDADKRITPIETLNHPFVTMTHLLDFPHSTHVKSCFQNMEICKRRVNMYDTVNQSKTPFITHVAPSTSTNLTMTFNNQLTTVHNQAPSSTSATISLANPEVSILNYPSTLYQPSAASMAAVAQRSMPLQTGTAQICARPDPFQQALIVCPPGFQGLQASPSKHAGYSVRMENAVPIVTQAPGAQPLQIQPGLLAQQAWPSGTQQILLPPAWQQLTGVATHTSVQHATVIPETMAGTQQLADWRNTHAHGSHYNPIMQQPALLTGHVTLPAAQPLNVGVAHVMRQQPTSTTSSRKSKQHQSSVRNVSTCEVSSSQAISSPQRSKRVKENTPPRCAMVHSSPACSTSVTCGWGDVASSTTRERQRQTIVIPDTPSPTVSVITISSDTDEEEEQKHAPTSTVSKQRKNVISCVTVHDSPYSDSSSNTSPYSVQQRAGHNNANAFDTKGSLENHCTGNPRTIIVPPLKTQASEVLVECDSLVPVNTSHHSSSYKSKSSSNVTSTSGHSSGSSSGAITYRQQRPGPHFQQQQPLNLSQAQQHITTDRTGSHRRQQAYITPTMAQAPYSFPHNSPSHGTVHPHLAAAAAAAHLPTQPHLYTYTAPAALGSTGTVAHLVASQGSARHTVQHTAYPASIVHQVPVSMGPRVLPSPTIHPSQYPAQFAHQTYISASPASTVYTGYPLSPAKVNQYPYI
Assay [6] concerns the target Casein kinase I isoform delta (Homo sapiens) (UniProt P48730). Particulars: dose 10.0 µM.

Sequence of Casein kinase I isoform delta (Homo sapiens) (P48730 whole entry, looked up, canonical isoform): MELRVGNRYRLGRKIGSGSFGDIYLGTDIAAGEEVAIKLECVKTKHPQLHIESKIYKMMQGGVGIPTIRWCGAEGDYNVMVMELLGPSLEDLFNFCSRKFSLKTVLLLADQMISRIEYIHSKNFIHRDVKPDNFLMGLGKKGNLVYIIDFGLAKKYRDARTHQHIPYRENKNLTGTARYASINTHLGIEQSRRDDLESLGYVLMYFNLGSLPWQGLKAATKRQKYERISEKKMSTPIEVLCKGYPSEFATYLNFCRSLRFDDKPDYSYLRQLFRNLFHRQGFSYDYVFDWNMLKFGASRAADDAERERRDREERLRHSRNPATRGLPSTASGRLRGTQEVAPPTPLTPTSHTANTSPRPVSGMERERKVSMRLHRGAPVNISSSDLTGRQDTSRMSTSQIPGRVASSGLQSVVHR
Sequence of Calcium/calmodulin-dependent protein kinase kinase 2 (Homo sapiens) (Q96RR4 2-588 limits assumed): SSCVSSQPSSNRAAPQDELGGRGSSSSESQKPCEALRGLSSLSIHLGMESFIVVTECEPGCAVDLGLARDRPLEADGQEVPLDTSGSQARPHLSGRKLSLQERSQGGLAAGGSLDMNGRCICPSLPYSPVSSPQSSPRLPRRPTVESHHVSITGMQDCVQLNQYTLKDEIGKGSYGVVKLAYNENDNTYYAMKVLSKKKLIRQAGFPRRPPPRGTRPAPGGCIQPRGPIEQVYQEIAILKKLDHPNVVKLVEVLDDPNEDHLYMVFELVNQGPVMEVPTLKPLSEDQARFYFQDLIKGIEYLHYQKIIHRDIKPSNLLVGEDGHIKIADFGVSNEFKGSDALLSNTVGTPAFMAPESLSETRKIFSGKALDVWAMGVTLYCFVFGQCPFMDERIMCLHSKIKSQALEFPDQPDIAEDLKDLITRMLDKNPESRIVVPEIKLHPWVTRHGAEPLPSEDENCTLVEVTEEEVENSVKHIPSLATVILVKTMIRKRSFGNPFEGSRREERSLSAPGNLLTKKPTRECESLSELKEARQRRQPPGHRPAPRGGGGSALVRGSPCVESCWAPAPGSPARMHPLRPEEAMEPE

With `O=C1NC(NC23CC4CC(CC(C4)C2)C3)=N/C1=C\c1ccc2scnc2c1`, the IC50 in assay [1] and in assay [2] was over 10 µM in each case. Also, the ΔTm in assay [3] is -0.5 °C; in assay [4], 0.3 °C; in assay [5] it was -0.4 °C; in assay [6], 1.4 °C.
